Reference: patent US20240116922A1, “IMIDAZO[1,2-A]PYRIDINE DERIVATIVES AS IRAK4 INHIBITORS AND THEIR USE IN THE TREATMENT OF DISEASE” (BIOGEN MA INC., priority 2020, published 2024)
Converted amounts (≈) assume the structure as drawn. Where a name gives a salt, the structure may show the parent alone.

How the values were obtained:
[1] = molecular target: MDR1 (Homo sapiens (Human), UniProt P08183); assay: in vitro; conditions: MDCK-MDR1
[2] = molecular target: IRAK4 (Homo sapiens (Human), UniProt Q9NWZ3); assay: IRAK4 MSD biochemical assay (2-hour 1 mM ATP); conditions: 0.1 nM IRAK4, 1 mM ATP, 2 hour at room temperature
[3] = Kpuu assay (in vivo brain-to-plasma unbound partition); conditions: brain (unbound) versus plasma (unbound); intravenous infusion 4 to 24 h; unbound brain/plasma ratio; read-out: Brain Kpu, u
[4] = Kinetic solubility assay (CLND), pH 6.8; type: physicochemical; conditions: aqueous buffer, kinetic from dmso stock; potassium phosphate buffer pH 6.8, 2% DMSO, 24 hours at ambient temperature

Chain of MDR1 (P08183 whole entry): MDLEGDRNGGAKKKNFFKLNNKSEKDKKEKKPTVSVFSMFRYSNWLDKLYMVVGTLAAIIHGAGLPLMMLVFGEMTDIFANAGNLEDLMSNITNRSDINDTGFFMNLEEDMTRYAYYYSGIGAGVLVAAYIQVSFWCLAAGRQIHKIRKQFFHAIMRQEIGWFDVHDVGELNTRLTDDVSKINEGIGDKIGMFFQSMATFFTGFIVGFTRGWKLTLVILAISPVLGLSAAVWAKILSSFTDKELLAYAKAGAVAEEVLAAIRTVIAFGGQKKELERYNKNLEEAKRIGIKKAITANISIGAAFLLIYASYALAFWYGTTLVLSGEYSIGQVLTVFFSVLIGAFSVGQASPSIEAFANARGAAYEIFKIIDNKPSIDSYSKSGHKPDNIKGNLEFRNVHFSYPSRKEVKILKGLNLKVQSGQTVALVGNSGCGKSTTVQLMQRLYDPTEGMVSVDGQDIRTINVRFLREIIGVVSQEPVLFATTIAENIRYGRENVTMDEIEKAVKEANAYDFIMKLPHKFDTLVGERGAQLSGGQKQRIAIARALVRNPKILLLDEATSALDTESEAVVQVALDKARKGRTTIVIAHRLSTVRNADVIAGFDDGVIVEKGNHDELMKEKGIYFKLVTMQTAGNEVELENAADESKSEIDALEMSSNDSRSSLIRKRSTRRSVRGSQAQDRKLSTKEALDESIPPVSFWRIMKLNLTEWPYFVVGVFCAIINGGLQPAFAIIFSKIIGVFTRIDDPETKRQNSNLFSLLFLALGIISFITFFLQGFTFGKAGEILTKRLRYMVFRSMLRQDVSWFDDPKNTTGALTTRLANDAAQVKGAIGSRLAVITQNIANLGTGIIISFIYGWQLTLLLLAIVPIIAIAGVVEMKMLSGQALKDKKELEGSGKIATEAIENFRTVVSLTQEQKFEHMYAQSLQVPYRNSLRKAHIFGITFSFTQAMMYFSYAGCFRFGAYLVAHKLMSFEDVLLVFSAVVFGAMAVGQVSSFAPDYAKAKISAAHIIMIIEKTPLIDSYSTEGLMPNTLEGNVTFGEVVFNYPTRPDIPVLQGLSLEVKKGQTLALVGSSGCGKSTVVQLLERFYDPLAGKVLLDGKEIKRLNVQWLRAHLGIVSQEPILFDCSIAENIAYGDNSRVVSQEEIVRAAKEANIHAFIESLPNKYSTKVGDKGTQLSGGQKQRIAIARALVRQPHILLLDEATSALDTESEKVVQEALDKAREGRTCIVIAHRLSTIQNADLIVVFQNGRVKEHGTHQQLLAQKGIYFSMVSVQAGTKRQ
Chain of IRAK4 (Q9NWZ3 whole entry, the tested form may be a part): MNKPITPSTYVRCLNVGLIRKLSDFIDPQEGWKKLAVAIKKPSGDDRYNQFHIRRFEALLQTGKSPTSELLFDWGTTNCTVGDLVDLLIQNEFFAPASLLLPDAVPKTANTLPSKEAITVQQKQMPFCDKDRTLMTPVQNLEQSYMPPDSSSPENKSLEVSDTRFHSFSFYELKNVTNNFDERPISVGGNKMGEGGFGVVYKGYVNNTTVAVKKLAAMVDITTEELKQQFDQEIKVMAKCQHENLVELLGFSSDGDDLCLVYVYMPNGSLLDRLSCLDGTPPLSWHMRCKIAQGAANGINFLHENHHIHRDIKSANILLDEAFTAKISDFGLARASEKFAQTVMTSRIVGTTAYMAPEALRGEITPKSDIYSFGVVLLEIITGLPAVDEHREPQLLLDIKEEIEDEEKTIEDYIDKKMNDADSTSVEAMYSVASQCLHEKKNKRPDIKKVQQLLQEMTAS

CC(C)Oc1cc2nc([C@@]34CC[C@@](C)(C3)OC4)cn2cc1C(=O)Nc1ccn(C)n1 (single isomer, unassigned) [Comparator 3C, reference compound]
efflux ratio at 120 min, 1 μM [1]: 6.3
IC50 [2]: 2300 pM
Kpuu (unbound brain-to-plasma partition coefficient) [3]: 0.3
solubility kinetic at 24 h [4]: 28.5 µg/mL (≈ 69.6 µM)

CC(C)Oc1cc2nc([C@@]34CC[C@@](C)(C3)OC4)cn2cc1C(=O)Nc1cccn(C2CC2)c1=O (single isomer, unassigned) [Example 4]
efflux ratio at 120 min, 1 μM [1]: 7.1
IC50 [2]: 200 pM
Kpuu (unbound brain-to-plasma partition coefficient) [3]: 0.26
solubility kinetic at 24 h [4]: 57.4 µg/mL (≈ 124 µM)

CC(C)Oc1cc2nc([C@]34CC[C@](C)(C3)OC4)cn2cc1C(=O)Nc1cccn(C2CC2)c1=O (single isomer, unassigned) [Example 5]
efflux ratio at 120 min, 1 μM [1]: 6.1
IC50 [2]: 100 pM
Kpuu (unbound brain-to-plasma partition coefficient) [3]: 0.38
solubility kinetic at 24 h [4]: 32.9 µg/mL (≈ 71.1 µM)

CC(C)Oc1cc2nc([C@@]34CC[C@@](CF)(C3)OC4)cn2cc1C(=O)Nc1cccn(C2CC2)c1=O (single isomer, unassigned) [Example 7]
efflux ratio at 120 min, 1 μM [1]: 5
IC50 [2]: 300 pM
Kpuu (unbound brain-to-plasma partition coefficient) [3]: 0.66
solubility kinetic at 24 h [4]: 79.2 µg/mL (≈ 165 µM)

CC(C)Oc1cc2nc([C@]34CC[C@](CF)(C3)OC4)cn2cc1C(=O)Nc1cccn(C2CC2)c1=O (single isomer, unassigned) [Example 8]
efflux ratio at 120 min, 1 μM [1]: 5.4
IC50 [2]: 300 pM
Kpuu (unbound brain-to-plasma partition coefficient) [3]: 0.49
solubility kinetic at 24 h [4]: 75.9 µg/mL (≈ 158 µM)

CC[C@H](C)Oc1cc2nc(C34COC(CF)(C3)C4)cn2cc1C(=O)Nc1cccn(C2CC2)c1=O (single isomer, unassigned) [Example 15]
efflux ratio at 120 min, 1 μM [1]: 8.1
IC50 [2]: 400 pM
Kpuu (unbound brain-to-plasma partition coefficient) [3]: 0.41
solubility kinetic at 24 h [4]: 78.6 µg/mL (≈ 164 µM)

C[C@@]12CC[C@@](c3cn4cc(C(=O)Nc5cccn(C6CC6)c5=O)c(OC5CCC5)cc4n3)(CO1)C2 (single isomer, unassigned) [Example 25]
efflux ratio at 120 min, 1 μM [1]: 3.2
IC50 [2]: 300 pM
Kpuu (unbound brain-to-plasma partition coefficient) [3]: 0.36
solubility kinetic at 24 h [4]: 66.7 µg/mL (≈ 141 µM)

CC[C@@H](C)Oc1nc2nc(C34COC(C)(C3)C4)cn2cc1C(=O)Nc1cccn(C2CC2)c1=O (single isomer, unassigned) [Example 63]
efflux ratio at 120 min, 1 μM [1]: 5.5
IC50 [2]: 800 pM
Kpuu (unbound brain-to-plasma partition coefficient) [3]: 0.48
solubility kinetic at 24 h [4]: 67.1 µg/mL (≈ 145 µM)

CC(C)Oc1c(C(=O)Nc2cccn(C3CC3)c2=O)cn2cc([C@@]34CC[C@@](C)(C3)OC4)nc2c1F (single isomer, unassigned) [Example 67]
efflux ratio at 120 min, 1 μM [1]: 2.8
IC50 [2]: 1300 pM
Kpuu (unbound brain-to-plasma partition coefficient) [3]: 0.96
solubility kinetic at 24 h [4]: 48.8 µg/mL (≈ 102 µM)

CC(C)Oc1nc2nc(C34COC(C)(C3)C4)cn2cc1C(=O)Nc1cccn([C@H]2CC2(C)C)c1=O (single isomer, unassigned) [Example 79]
efflux ratio at 120 min, 1 μM [1]: 2.9
IC50 [2]: 700 pM
Kpuu (unbound brain-to-plasma partition coefficient) [3]: 0.89
solubility kinetic at 24 h [4]: 45.7 µg/mL (≈ 95.7 µM)

CC(C)Oc1nc2nc(C[C@@H]3CCOC3)cn2cc1C(=O)Nc1cccn(C2CC2)c1=O (single isomer, unassigned) [Example 109]
efflux ratio at 120 min, 1 μM [1]: 7.1
IC50 [2]: 500 pM
Kpuu (unbound brain-to-plasma partition coefficient) [3]: 0.25
solubility kinetic at 24 h [4]: 50.2 µg/mL (≈ 115 µM)

CC(C)Oc1cc2nc([C@]34CC[C@](C)(C3)OC4)cn2cc1C(=O)Nc1cccn([C@H]2C[C@@H]2F)c1=O (single isomer, unassigned) [Example 119]
efflux ratio at 120 min, 1 μM [1]: 4.2
IC50 [2]: 700 pM
Kpuu (unbound brain-to-plasma partition coefficient) [3]: 0.73
solubility kinetic at 24 h [4]: 79 µg/mL (≈ 164 µM)

CC(C)Oc1nc2nc([C@@]34CC[C@@](C)(C3)OC4)cn2cc1C(=O)Nc1cccn([C@H]2C[C@@H]2C)c1=O (single isomer, unassigned) [Example 149]
efflux ratio at 120 min, 1 μM [1]: 2.8
IC50 [2]: 400 pM
Kpuu (unbound brain-to-plasma partition coefficient) [3]: 1.34
solubility kinetic at 24 h [4]: 34.5 µg/mL (≈ 72.2 µM)

CC(C)Oc1nc2nc([C@]34CC[C@](C)(C3)OC4)cn2cc1C(=O)Nc1cccn([C@H]2C[C@H]2C)c1=O (single isomer, unassigned) [Example 186, trifluoroacetate]
efflux ratio at 120 min, 1 μM [1]: 10.8
IC50 [2]: 200 pM
Kpuu (unbound brain-to-plasma partition coefficient) [3]: 0.32
solubility kinetic at 24 h [4]: 64.7 µg/mL

CC(C)Oc1nc2nc(C34CCC(C)(C3)OC4)cn2cc1C(=O)Nc1cccn([C@H]2C[C@H]2C)c1=O (stereo in doubt) [Example 187, 7-isopropoxy-2-((1R,4S)-1-methyl-2-oxabicyclo[2.2.1]heptan-4-yl)-N-(1-((1S,2R)-2-methylcyclopropyl)-2-oxo-1,2-dihydropyridin-3-yl)imidazo[1,2-a]pyrimidine-6-carboxamide trifluoroacetate]
efflux ratio at 120 min, 1 μM [1]: 10.9
IC50 [2]: 200 pM
Kpuu (unbound brain-to-plasma partition coefficient) [3]: 0.19
solubility kinetic at 24 h [4]: 55.1 µg/mL

Cc1cnc2c(NC(=O)c3cn4cc(C56COC(C)(C5)C6)nc4cc3OC(C)C)cnn2c1 [Comparator 1B, 7-isopropoxy-2-(1-methyl-2-oxabicyclo[2.1.1]hexan-4-yl)-N-(6-methylpyrazolo[1,5-a]pyrimidin-3-yl)imidazo[1,2-a]pyridine-6-carboxamide, reference compound]
efflux ratio at 120 min, 1 μM [1]: 4.3
IC50 [2]: 200 pM
Kpuu (unbound brain-to-plasma partition coefficient) [3]: 0.3
solubility kinetic at 24 h [4]: 0.3 µg/mL (≈ 0.672 µM)

CC(C)Oc1cc2nc(C34COC(C)(C3)C4)cn2cc1C(=O)Nc1cccn(C)c1=O [Comparator 1D, 7-isopropoxy-N-(1-methyl-2-oxo-1,2-dihydropyridin-3-yl)-2-(1-methyl-2-oxabicyclo[2.1.1]hexan-4-yl)imidazo[1,2-a]pyridine-6-carboxamide, reference compound]
efflux ratio at 120 min, 1 μM [1]: 8
IC50 [2]: 600 pM
Kpuu (unbound brain-to-plasma partition coefficient) [3]: 0.9
solubility kinetic at 24 h [4]: 63.2 µg/mL (≈ 150 µM)

CC(C)Oc1nc2nc([C@@]34CC[C@@](C)(C3)OC4)cn2cc1C(=O)Nc1cccn(C)c1=O [Comparator 4D, 7-isopropoxy-N-(1-methyl-2-oxo-1,2-dihydropyridin-3-yl)-2-((1S,4R)-1-methyl-2-oxabicyclo[2.2.1]heptan-4-yl)imidazo[1,2-a]pyrimidine-6-carboxamide, reference compound]
efflux ratio at 120 min, 1 μM [1]: 5.6
IC50 [2]: 500 pM
Kpuu (unbound brain-to-plasma partition coefficient) [3]: 0.2
solubility kinetic at 24 h [4]: 58.8 µg/mL (≈ 134 µM)

Cc1cnc2c(NC(=O)c3cn4cc(C56CCC(C)(CC5)OC6)nc4nc3OC(C)C)cnn2c1 [Comparator 6B, 7-isopropoxy-2-(1-methyl-2-oxabicyclo[2.2.2]octan-4-yl)-N-(6-methylpyrazolo[1,5-a]pyrimidin-3-yl)imidazo[1,2-a]pyrimidine-6-carboxamide, reference compound]
efflux ratio at 120 min, 1 μM [1]: 1.5
IC50 [2]: 200 pM
Kpuu (unbound brain-to-plasma partition coefficient) [3]: 0
solubility kinetic at 24 h [4]: 7.2 µg/mL (≈ 15.1 µM)

CC(C)Oc1nc2nc(C34CCC(C)(CC3)OC4)cn2cc1C(=O)Nc1ccn(C)n1 [Comparator 6C, 7-isopropoxy-N-(1-methyl-1H-pyrazol-3-yl)-2-(1-methyl-2-oxabicyclo[2.2.2]octan-4-yl)imidazo[1,2-a]pyrimidine-6-carboxamide, reference compound]
efflux ratio at 120 min, 1 μM [1]: 1.8
IC50 [2]: 900 pM
Kpuu (unbound brain-to-plasma partition coefficient) [3]: 0.2
solubility kinetic at 24 h [4]: 48.5 µg/mL (≈ 114 µM)

CC(C)Oc1cc2nc(C34CCC(C)(CC3)OC4)cn2cc1C(=O)Nc1cccn(C2CC2)c1=O [Example 3, N-(1-cyclopropyl-2-oxo-1,2-dihydropyridin-3-yl)-7-isopropoxy-2-(1-methyl-2-oxabicyclo[2.2.2]octan-4-yl)imidazo[1,2-a]pyridine-6-carboxamide]
efflux ratio at 120 min, 1 μM [1]: 2.9
IC50 [2]: 200 pM
Kpuu (unbound brain-to-plasma partition coefficient) [3]: 0.25
solubility kinetic at 24 h [4]: 36 µg/mL (≈ 75.5 µM)

CC(C)Oc1cc2nc(C34COC(C)(C3)C4)cn2cc1C(=O)Nc1cccn(C2CC2)c1=O [Example 6, N-(1-cyclopropyl-2-oxo-1,2-dihydropyridin-3-yl)-7-isopropoxy-2-(1-methyl-2-oxabicyclo[2.1.1]hexan-4-yl)imidazo[1,2-a]pyridine-6-carboxamide]
efflux ratio at 120 min, 1 μM [1]: 7.9
IC50 [2]: 100 pM
Kpuu (unbound brain-to-plasma partition coefficient) [3]: 0.27
solubility kinetic at 24 h [4]: 58 µg/mL (≈ 129 µM)

CC(C)Oc1cc2nc(C34COC(CF)(C3)C4)cn2cc1C(=O)Nc1cccn(C2CC2)c1=O [Example 9, N-(1-cyclopropyl-2-oxo-1,2-dihydropyridin-3-yl)-2-(1-(fluoromethyl)-2-oxabicyclo[2.1.1]hexan-4-yl)-7-isopropoxyimidazo[1,2-a]pyridine-6-carboxamide]
efflux ratio at 120 min, 1 μM [1]: 9.7
IC50 [2]: 400 pM
Kpuu (unbound brain-to-plasma partition coefficient) [3]: 0.18
solubility kinetic at 24 h [4]: 70.6 µg/mL (≈ 151 µM)

CC[C@H](C)Oc1cc2nc(C34COC(C)(C3)C4)cn2cc1C(=O)Nc1cccn(C2CC2)c1=O [Example 19, (S)-7-(sec-butoxy)-N-(1-cyclopropyl-2-oxo-1,2-dihydropyridin-3-yl)-2-(1-methyl-2-oxabicyclo[2.1.1]hexan-4-yl)imidazo[1,2-a]pyridine-6-carboxamide]
efflux ratio at 120 min, 1 μM [1]: 6
IC50 [2]: 500 pM
Kpuu (unbound brain-to-plasma partition coefficient) [3]: 0.49
solubility kinetic at 24 h [4]: 47 µg/mL (≈ 102 µM)

CC[C@H](C)Oc1nc2nc([C@]34CC[C@](C)(C3)OC4)cn2cc1C(=O)Nc1cccn(C2CC2)c1=O [Example 50, 7-((S)-sec-butoxy)-N-(1-cyclopropyl-2-oxo-1,2-dihydropyridin-3-yl)-2-((1R,4S)-1-methyl-2-oxabicyclo[2.2.1]heptan-4-yl)imidazo[1,2-a]pyrimidine-6-carboxamide]
efflux ratio at 120 min, 1 μM [1]: 2.9
IC50 [2]: 500 pM
Kpuu (unbound brain-to-plasma partition coefficient) [3]: 0.66
